Results as given in patent publication US20050004163A1, “3-(diarylmethylene)-8-azabicyclo[3.2.1]octane derivatives” (priority 2000, published 2005).
Where a name gives a salt, the structure may show the parent alone. Read-outs that look alike come from different tables or passages of the source.

Target: T1, μ-opioid receptor (Rattus norvegicus, UniProt P33535)
T1 construct: the forebrains are homogenized in Tris buffer in a Teflon®-glass homogenizer; from tissue; host or cells: forebrain of male Wistar rats (particulate membrane preparation)
T1 sequence (P33535 whole entry): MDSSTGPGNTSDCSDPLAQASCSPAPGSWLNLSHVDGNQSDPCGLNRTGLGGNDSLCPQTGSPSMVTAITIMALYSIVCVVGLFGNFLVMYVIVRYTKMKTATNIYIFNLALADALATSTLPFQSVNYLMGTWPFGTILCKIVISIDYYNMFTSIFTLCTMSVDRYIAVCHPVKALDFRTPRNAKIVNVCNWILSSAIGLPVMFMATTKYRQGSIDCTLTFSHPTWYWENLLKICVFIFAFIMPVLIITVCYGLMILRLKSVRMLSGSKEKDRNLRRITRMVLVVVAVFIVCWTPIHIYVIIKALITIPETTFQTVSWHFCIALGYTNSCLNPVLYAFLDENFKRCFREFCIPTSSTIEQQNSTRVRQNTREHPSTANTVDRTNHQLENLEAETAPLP
Experiment: Rat brain μ-opioid receptor binding assay ([3H]DAMGO)
Description: Rat Brain μ-Opioid Receptor Binding Assay
Male, Wistar rats (150-250 g, VAF, Charles River, Kingston, N.Y.) are killed by cervical dislocation and their brains removed and placed immediately in ice cold Tris HCl buffer (50 mM, pH 7.4). The forebrains are separated from the remainder of the brain by a coronal transection, beginning dorsally at the colliculi and passing ventrally through the midbrain-pontine junction. After dissection, the forebrains are homogenized in Tris buffer in a Teflon®-glass homogenizer. The homogenate is diluted to a concentration of 1 g of forebrain tissue per 100 mL Tris buffer and centrifuged at 39,000×G for 10 min. The pellet is resuspended in the same volume of Tris buffer with several brief pulses from a Polytron homogenizer. This particulate preparation is used for the μ-opioid binding assays. […] The tubes and filters are rinsed three times with 4 mL of 10 mM HEPES (pH 7.4) and the radioactivity associated with the filter circles determined using Formula 989 scintillation fluid (New England Nuclear, Boston, Mass.) in a scintillation counter.
The data are used to calculate either the % inhibition compared to control binding (when only a single concentration of test compound is evaluated) or a Ki value (when a range of concentrations is tested).
% Inhibition is calculated as follows: [formula]
Ki value is calculated using the LIGAND (Munson, P. J. and Rodbard, D., Anal. Biochem. 107: 220-239, 1980) data analysis program.

[1] = 10 nM solutions of the compounds, read-out: MOR binding Ki

Compound	Ki (MOR binding Ki) [nM]	Ki [1] [nM]
CCNC(=O)c1ccc(C=C2C[C@H]3CC[C@@H](C2)N3CCc2ccccc2)cc1 (single isomer, unassigned) [Cpd 41, (+)—N-Ethyl-4-(8-phenethyl-8-aza-bicyclo[3.2.1]oct-3-ylidenemethyl)-benzamide]	124	
CCNC(=O)c1ccc(C=C2C[C@H]3CC[C@@H](C2)N3CCc2ccccc2)cc1 (single isomer, unassigned) [Cpd 42, (−)—N-Ethyl-4-(8-phenethyl-8-aza-bicyclo[3.2.1]oct-3-ylidenemethyl)-benzamide]	5.99	
CCNC(=O)c1ccc(C(=C2CC3CCC(C2)N3CC=C(C)C)c2cccc(C(=O)O)c2)cc1 (single isomer, unassigned) [Cpd 44]		58.3
CCNC(=O)c1ccc(C(=C2CC3CCC(C2)N3CC=C(C)C)c2cccc(C(=O)O)c2)cc1 (single isomer, unassigned) [Cpd 45]		23.7
CCNC(=O)c1ccc(C(Br)=C2C[C@H]3CC[C@@H](C2)N3)cc1 (single isomer, unassigned) [Cpd 92]	115	
CCNC(=O)c1ccc(C(=C2C[C@H]3CC[C@@H](C2)N3Cc2ccsc2)c2ccc(CO)cc2)cc1 (single isomer, unassigned) [Cpd 196, N-Ethyl-4-[(4-hydroxymethyl-phenyl)-(8-thiophen-3-ylmethyl-8-aza-bicyclo[3.2.1]oct-3-ylidene)-methyl]-benzamide]	4.1	
CCNC(=O)c1ccc(C(=C2CC3CCC(C2)N3)c2nnn[nH]2)cc1 (single isomer, unassigned) [Cpd 201]	12300	
CCNC(=O)c1ccc(C(=C2CC3CCC(C2)N3)c2nnn[nH]2)cc1 (single isomer, unassigned) [Cpd 202]	8120	
CCNC(=O)c1ccc(C(=C2CC3CCC(C2)N3Cc2ccco2)c2nnn[nH]2)cc1 (single isomer, unassigned) [Cpd 203]	5450	
CCNC(=O)c1ccc(C(=C2CC3CCC(C2)N3Cc2ccsc2)c2ccc(CO)cc2)cc1 (single isomer, unassigned) [Cpd 206]		80.1
CCNC(=O)c1ccc(C(C#N)=C2CC3CCC(C2)N3Cc2ccoc2)cc1 (single isomer, unassigned) [Cpd 209]	2.59	
CCNC(=O)c1ccc(C(C#N)=C2CC3CCC(C2)N3Cc2ccoc2)cc1 (single isomer, unassigned) [Cpd 210]	2.3	
CCNC(=O)c1ccc(C(Br)=C2CC3CCC(C2)N3Cc2ccoc2)cc1 (single isomer, unassigned) [Cpd 211]	0.23	
CCNC(=O)c1ccc(C(Br)=C2CC3CCC(C2)N3Cc2ccoc2)cc1 (single isomer, unassigned) [Cpd 212]	38.5	
CCNC(=O)c1ccc(C(=C2CC3CCC(C2)N3Cc2ccsc2)c2cccc(-c3nnn[nH]3)c2)cc1 (single isomer, unassigned) [Cpd 215]	3120	
CCNC(=O)c1ccc(C(=C2CC3CCC(C2)N3Cc2ccsc2)c2cccc(-c3nnn[nH]3)c2)cc1 (single isomer, unassigned) [Cpd 216]	12.1	
CCNC(=O)c1ccc(C(=C2C[C@H]3CC[C@@H](C2)N3C(=O)Cc2ccccc2)c2cccnc2)cc1 (single isomer, unassigned) [Cpd 217]	3.07	
CCNC(=O)c1ccc(C=C2CC3CCC(C2)N3CC(N)Cc2ccccc2)cc1 (centres unmarked) [Cpd 1, 4-[8-(2-Amino-3-phenyl-propyl)-8-aza-bicyclo[3.2.1]oct-3-ylidenemethyl]-N-ethyl-benzamide Hydrochloride]	340	
CCNC(=O)c1ccc(C(=C2CC3CCC(C2)N3Cc2ccc3ccccc3n2)c2cccc(F)c2)cc1 [Cpd 3]	74.1	
CCNC(=O)c1ccc(C(=C2CC3CCC(C2)N3Cc2ccc(NC(C)=O)cc2)c2ccc3c(c2)OCO3)cc1 [Cpd 5]	73	
CCNC(=O)c1ccc(C(=C2CC3CCC(C2)N3Cc2ncc[nH]2)c2ccc3c(c2)OCO3)cc1 [Cpd 6]	35.8	

Compound	Ki (MOR binding Ki) [nM]	Ki [1] [nM]
CCNC(=O)c1ccc(C(=C2CC3CCC(C2)N3Cc2ccsc2)c2ccc3c(c2)OCO3)cc1 [Cpd 7]		3.05
CCNC(=O)c1ccc(C(=C2CC3CCC(C2)N3Cc2ccco2)c2ccc3c(c2)OCO3)cc1 [Cpd 8]	7.41	
CCNC(=O)c1ccc(C(=C2CC3CCC(C2)N3Cc2ccc3ccccc3n2)c2ccc3c(c2)OCO3)cc1 [Cpd 9]	34.1	
CCNC(=O)c1ccc(C(=C2CC3CCC(C2)N3Cc2ccoc2)c2ccc3c(c2)OCO3)cc1 [Cpd 10]		1.06
CCNC(=O)c1ccc(C(=C2CC3CCC(C2)N3Cc2[nH]cnc2C)c2ccc3c(c2)OCO3)cc1 [Cpd 11]	46.2	
CCNC(=O)c1ccc(C(=C2CC3CCC(C2)N3Cc2sccc2C)c2ccc3c(c2)OCO3)cc1 [Cpd 12]	128	
CCNC(=O)c1ccc(C(=C2CC3CCC(C2)N3Cc2ccc3ccccc3n2)c2ccccn2)cc1 [Cpd 13]		123
CCNC(=O)c1ccc(C(=C2CC3CCC(C2)N3Cc2ccc(NC(C)=O)cc2)c2cnc3ccccc3c2)cc1 [Cpd 14]	959	
CCNC(=O)c1ccc(C(=C2CC3CCC(C2)N3Cc2ccsc2)c2cnc3ccccc3c2)cc1 [Cpd 15]		127
CCNC(=O)c1ccc(C(=C2CC3CCC(C2)N3Cc2ccco2)c2cnc3ccccc3c2)cc1 [Cpd 16]		82
CCNC(=O)c1ccc(C(=C2CC3CCC(C2)N3Cc2ccoc2)c2cnc3ccccc3c2)cc1 [Cpd 17]	20.3	
CCNC(=O)c1ccc(C(=C2CC3CCC(C2)N3Cc2sccc2C)c2cnc3ccccc3c2)cc1 [Cpd 18]	561	
CCNC(=O)c1ccc(C(=C2CC3CCC(C2)N3Cc2ccc3ccccc3n2)c2cccc(C#N)c2)cc1 [Cpd 20]	129	
CCNC(=O)c1ccc(C(Br)=C2CC3CCC(C2)N3Cc2ccc(NC(C)=O)cc2)cc1 [Cpd 21]		48.2
CCNC(=O)c1ccc(C(Br)=C2CC3CCC(C2)N3Cc2ncc[nH]2)cc1 [Cpd 22]	58.5	
CCNC(=O)c1ccc(C(Br)=C2CC3CCC(C2)N3Cc2ccsc2)cc1 [Cpd 23]		6.23
CCNC(=O)c1ccc(C(Br)=C2CC3CCC(C2)N3Cc2ccco2)cc1 [Cpd 24]		21.7
CCNC(=O)c1ccc(C(Br)=C2CC3CCC(C2)N3Cc2ccc3ccccc3n2)cc1 [Cpd 25]		95
CCNC(=O)c1ccc(C(Br)=C2CC3CCC(C2)N3Cc2ccoc2)cc1 [Cpd 26]	1.86	
CCNC(=O)c1ccc(C(Br)=C2CC3CCC(C2)N3Cc2[nH]cnc2C)cc1 [Cpd 27]	99.8	
CCNC(=O)c1ccc(C(Br)=C2CC3CCC(C2)N3Cc2sccc2C)cc1 [Cpd 28]		69.6

Compound	Ki (MOR binding Ki) [nM]	Ki [1] [nM]
CCNC(=O)c1ccc(C(=C2CC3CCC(C2)N3Cc2ccc3ccccc3n2)c2cnccn2)cc1 [Cpd 30]	15	
CCNC(=O)c1ccc(C=C2CC3CCC(C2)N3Cc2ccc(NC(C)=O)cc2)cc1 [Cpd 31]	25.6	
CCNC(=O)c1ccc(C=C2CC3CCC(C2)N3Cc2ncc[nH]2)cc1 [Cpd 32]		385
CCNC(=O)c1ccc(C=C2CC3CCC(C2)N3Cc2ccsc2)cc1 [Cpd 33]	198	
CCNC(=O)c1ccc(C=C2CC3CCC(C2)N3Cc2ccco2)cc1 [Cpd 34]	1420	
CCNC(=O)c1ccc(C=C2CC3CCC(C2)N3Cc2ccc3ccccc3n2)cc1 [Cpd 35]		532
CCNC(=O)c1ccc(C=C2CC3CCC(C2)N3Cc2ccoc2)cc1 [Cpd 36]		109
CCNC(=O)c1ccc(C=C2CC3CCC(C2)N3Cc2[nH]cnc2C)cc1 [Cpd 37]	1470	
CCNC(=O)c1ccc(C=C2CC3CCC(C2)N3Cc2sccc2C)cc1 [Cpd 38]		236
CCNC(=O)c1ccc(C(Br)=C2CC3CCC(C2)N3Cc2c[nH]cn2)cc1 [Cpd 39]		83.7
CCNC(=O)c1ccc(C(Br)=C2CC3CCC(C2)N3Cc2cccs2)cc1 [Cpd 40]	8.97	
CCNC(=O)c1ccc(C(=C2CC3CCC(C2)N3CC#N)c2ccccc2)cc1 [Cpd 43, 4-[(8-Cyanomethyl-8-aza-bicyclo[3.2.1]oct-3-ylidene)-phenyl-methyl]-N-ethyl-benzamide]	721	
CCNC(=O)c1ccc(C=C2CC3CCC(C2)N3Cc2c[nH]cn2)cc1 [Cpd 46]	5480	
CCNC(=O)c1ccc(C(=C2CC3CCC(C2)N3CC=C(C)C)c2cccc(C(=O)O)c2)cc1 [Cpd 47, 3{(4-Ethylcarbamoyl-phenyl)-[8-(3-methyl-but-2-enyl)-8-aza-bicyclo[3.2.1]oct-3-ylidene]-methyl}-benzoic acid]	125	
CCN(CC)C(=O)c1ccc(C=C2CC3CCC(C2)N3)cc1 [Cpd 48, 4-(8-Aza-bicyclo[3.2.1]oct-3-ylidenemethyl)-N,N-diethylbenzamide]	25800	
CCN(CC)C(=O)c1ccc(C(Br)=C2CC3CCC(C2)N3)cc1 [Cpd 49, 4-[(8-Aza-bicyclo[3.2.1]oct-3-ylidene)-bromo-methyl]-N,N-diethylbenzamide]	100000	
CCNC(=O)c1ccc(C=C2CC3CCC(C2)N3CCc2ccccc2)cc1 [Cpd 50, N-Ethyl-4-(8-phenethyl-8-aza-bicyclo[3.2.1]oct-3-ylidenemethyl)-benzamide]	44.3	
CCN(CC)C(=O)c1ccc(C=C2CC3CCC(C2)N3Cc2ccsc2)cc1 [Cpd 52]		6490
CCCCN1C2CCC1CC(=Cc1ccc(C(=O)NCC)cc1)C2 [Cpd 53]		262
CCNC(=O)c1ccc(C=C2CC3CCC(C2)N3Cc2ccc3c(c2)OCO3)cc1 [Cpd 54]	130	
